Experimental data from ChEMBL document CHEMBL5500406, “Discovery of Novel Proteolysis-Targeting Chimera Molecules as Degraders of Programmed Cell Death-Ligand 1 for Breast Cancer Therapy” (J Med Chem, 2024).
Activity calls are given as the source filed them. The calls are words filed in the database; no cut-off is given here.

Key:
[1] = biological target: Programmed cell death 1 ligand 1 (Mus musculus, UniProt Q9EP73); assay: Binding affinity to mouse PD-L1 assessed as dissociation constant incubated for 15 mins by MST assay
Sequence of Programmed cell death 1 ligand 1 (Q9EP73 whole entry): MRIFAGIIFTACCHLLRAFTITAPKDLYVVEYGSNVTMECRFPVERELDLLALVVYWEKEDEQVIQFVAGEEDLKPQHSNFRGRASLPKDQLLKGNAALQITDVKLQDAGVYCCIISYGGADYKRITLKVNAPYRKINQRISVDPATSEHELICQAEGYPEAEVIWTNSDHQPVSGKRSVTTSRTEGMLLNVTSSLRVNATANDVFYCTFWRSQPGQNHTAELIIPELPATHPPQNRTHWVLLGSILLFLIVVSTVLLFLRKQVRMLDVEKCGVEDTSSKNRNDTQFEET

[2] = Toxicity in BALB/c mouse allografted with mouse 4T1 cells assessed as body weight loss at 30 to 60 mg/kg, ip qd for 15 days; assay type: organism-based; conditions: in vivo, 360 h, dose 30-60 mg/kg, time 15 day
[3] = tested on: 4T1; assay: Antitumor activity against mouse 4T1 cells allografted in BALB/c mouse assessed as reduction in tumor weight at 60 mg/kg, ip qd for 15 days in presence of Paclitaxel; assay type: functional, organism-based; conditions: time 15.0 day
[4] = biological target: T1, Protein cereblon/Programmed cell death 1 ligand 1 (Mus musculus) (UniProt Q9EP73+Q8C7D2); assay: PROTAC activity at CRBN/PD-L1 in mouse 4T1 cells assessed as reduction in green fluorescence in cytoplasm at 0.312 uM incubated for 24 hrs by immunofluorescence analysis; assay type: subcellular
T1 sequence (Q8C7D2 whole entry partner): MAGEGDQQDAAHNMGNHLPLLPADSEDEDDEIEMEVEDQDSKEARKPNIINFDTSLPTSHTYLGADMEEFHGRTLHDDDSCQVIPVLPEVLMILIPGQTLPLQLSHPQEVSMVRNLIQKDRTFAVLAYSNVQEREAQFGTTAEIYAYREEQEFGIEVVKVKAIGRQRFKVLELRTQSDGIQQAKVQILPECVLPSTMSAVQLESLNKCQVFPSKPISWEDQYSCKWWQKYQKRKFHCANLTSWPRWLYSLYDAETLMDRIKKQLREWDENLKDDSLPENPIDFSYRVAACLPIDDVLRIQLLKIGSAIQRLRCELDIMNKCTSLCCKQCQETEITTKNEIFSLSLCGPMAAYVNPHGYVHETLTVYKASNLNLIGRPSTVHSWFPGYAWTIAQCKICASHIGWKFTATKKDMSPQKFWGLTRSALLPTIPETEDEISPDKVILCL
T1 sequence (Q9EP73 19-290 limits assumed): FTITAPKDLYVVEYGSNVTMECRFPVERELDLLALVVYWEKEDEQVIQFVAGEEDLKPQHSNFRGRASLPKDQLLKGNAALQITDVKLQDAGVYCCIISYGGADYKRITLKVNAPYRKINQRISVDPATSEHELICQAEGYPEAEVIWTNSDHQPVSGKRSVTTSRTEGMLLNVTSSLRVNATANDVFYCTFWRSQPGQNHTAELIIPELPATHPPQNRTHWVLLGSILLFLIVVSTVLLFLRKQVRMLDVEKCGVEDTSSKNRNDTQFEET

[5] = Volume of distribution at steady state in Sprague-Dawley rat at 3 mg/kg, iv measured for 24 hrs by LC-MS/MS analysis; assay type: ADME, organism-based; conditions: in vivo, read-out: Vdss
[6] = biological target: T1, Protein cereblon/Programmed cell death 1 ligand 1 (Mus musculus); assay: PROTAC activity at CRBN/PD-L1 in mouse 4T1 cells assessed as protein degradation at 0.078 to 0.312 uM incubated for 24 hrs by flow cytometry; assay type: cell-based; conditions: dose 0.078-0.312 µM
[7] = tested on: 4T1; assay: Antitumor activity against mouse 4T1 cells allografted in BALB/c mouse at 30 mg/kg, ip qd for 15 days relative to control; assay type: functional; conditions: 4T1, 360 h, time 15 day, read-out: TGI
[8] = Toxicity in BALB/c mouse allografted with mouse 4T1 cells assessed as abnormality in biochemical analysis at 30 to 60 mg/kg, ip qd for 15 days; assay type: organism-based; conditions: in vivo, 360 h, dose 30-60 mg/kg, time 15 day
[9] = Toxicity in BALB/c mouse allografted with mouse 4T1 cells assessed as abnormality in routine blood analysis at 30 to 60 mg/kg, ip qd for 15 days; assay type: organism-based; conditions: in vivo, 360 h, dose 30-60 mg/kg, time 15 day
[10] = Cytotoxicity against BALB/c mouse PBMC cells at <=0.312 uM incubated for 48 hrs by MTT assay; assay type: toxicity, cell-based
[11] = tested on: 4T1; assay: Antitumor activity against mouse 4T1 cells allografted in BALB/c mouse assessed as increase in Prf1 mRNA level in tumor at 60 mg/kg, ip qd for 15 days by qRT-PCR analysis; assay type: functional, organism-based; conditions: time 15.0 day
[12] = Clearance in Sprague-Dawley rat at 3 mg/kg, iv measured for 24 hrs by LC-MS/MS analysis; assay type: ADME, organism-based; conditions: in vivo
[13] = biological target: T1, Protein cereblon/Programmed cell death 1 ligand 1 (Mus musculus); assay: PROTAC activity at CRBN/PD-L1 in mouse 4T1 cells assessed as protein degradation at 0.312 uM incubated for 24 hrs by Western blot analysis relative to control; assay type: cell-based
[14] = tested on: 4T1; assay: Antitumor activity against mouse 4T1 cells allografted in BALB/c mouse assessed as reduction in tumor volume at 60 mg/kg, ip qd for 15 days in presence of Paclitaxel; assay type: functional, organism-based; conditions: time 15.0 day
[15] = Toxicity in BALB/c mouse allografted with mouse 4T1 cells assessed as pathological change in kidney at 60 mg/kg, ip qd for 15 days in presence of Paclitaxel by H and E staining based analysis; assay type: organism-based; conditions: in vivo, 360 h, time 15 day
[16] = tested on: 4T1; assay: Antitumor activity against mouse 4T1 cells allografted in BALB/c mouse assessed as increase in CD4+ T cells infiltration in tumor at 30 to 60 mg/kg, ip qd for 15 days by IHC analysis; assay type: functional, organism-based; conditions: dose 30-60 mg/kg, time 15.0 day
[17] = Toxicity in BALB/c mouse allografted with mouse 4T1 cells assessed as pathological change in heart at 60 mg/kg, ip qd for 15 days in presence of Paclitaxel by H and E staining based analysis; assay type: organism-based; conditions: in vivo, 360 h, time 15 day
[18] = Toxicity in BALB/c mouse allografted with mouse 4T1 cells assessed as pathological change in liver at 60 mg/kg, ip qd for 15 days in presence of Paclitaxel by H and E staining based analysis; assay type: organism-based; conditions: in vivo, 360 h, time 15 day
[19] = Toxicity in BALB/c mouse allografted with mouse 4T1 cells assessed as pathological change in spleen at 30 to 60 mg/kg, ip qd for 15 days by H and E staining based analysis; assay type: organism-based; conditions: in vivo, 360 h, dose 30-60 mg/kg, time 15 day
[20] = Toxicity in BALB/c mouse allografted with mouse 4T1 cells assessed as abnormality in biochemical analysis at 60 mg/kg, ip qd for 15 days in presence of Paclitaxel; assay type: organism-based; conditions: in vivo, 360 h, time 15 day
[21] = Toxicity in BALB/c mouse allografted with mouse 4T1 cells assessed as body weight loss at 60 mg/kg, ip qd for 15 days in presence of Paclitaxel; assay type: organism-based; conditions: in vivo, 360 h, time 15 day
[22] = Toxicity in BALB/c mouse allografted with mouse 4T1 cells assessed as pathological change in kidney at 30 to 60 mg/kg, ip qd for 15 days by H and E staining based analysis; assay type: organism-based; conditions: in vivo, 360 h, dose 30-60 mg/kg, time 15 day
[23] = biological target: T2, Protein cereblon/Programmed cell death 1 ligand 1 (Homo sapiens) (UniProt Q9NZQ7+Q96SW2); assay: PROTAC activity at CRBN/PD-L1 in human NCI-H2228 cells assessed as protein degradation at >=5 uM measured for 24 hrs by Western blot analysis; assay type: cell-based
T2 sequence (Q96SW2 whole entry, looked up): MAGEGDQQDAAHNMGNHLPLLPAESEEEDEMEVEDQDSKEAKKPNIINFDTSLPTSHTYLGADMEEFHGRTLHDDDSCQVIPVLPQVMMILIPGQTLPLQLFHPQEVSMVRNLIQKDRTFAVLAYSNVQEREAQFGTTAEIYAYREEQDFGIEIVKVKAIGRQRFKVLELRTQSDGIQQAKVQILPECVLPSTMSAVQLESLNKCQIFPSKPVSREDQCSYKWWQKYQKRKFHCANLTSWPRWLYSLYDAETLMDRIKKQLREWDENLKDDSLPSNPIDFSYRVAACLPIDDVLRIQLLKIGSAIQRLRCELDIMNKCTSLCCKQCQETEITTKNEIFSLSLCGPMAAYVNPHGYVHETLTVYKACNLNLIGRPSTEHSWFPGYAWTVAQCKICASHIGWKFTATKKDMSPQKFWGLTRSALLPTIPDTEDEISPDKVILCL
T2 sequence (Q9NZQ7 whole entry, looked up): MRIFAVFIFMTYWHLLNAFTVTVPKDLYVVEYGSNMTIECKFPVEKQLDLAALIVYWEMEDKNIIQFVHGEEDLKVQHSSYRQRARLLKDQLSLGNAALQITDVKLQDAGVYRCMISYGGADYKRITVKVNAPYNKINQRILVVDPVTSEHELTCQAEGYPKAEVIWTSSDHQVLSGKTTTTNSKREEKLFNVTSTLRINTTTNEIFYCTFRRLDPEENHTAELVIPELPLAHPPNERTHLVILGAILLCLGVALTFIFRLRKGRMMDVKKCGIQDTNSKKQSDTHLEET

[24] = biological target: T2, Protein cereblon/Programmed cell death 1 ligand 1 (Homo sapiens); assay: PROTAC activity at CRBN/PD-L1 in human MDA-MB-231 cells assessed as protein degradation at >=5 uM measured for 24 hrs by Western blot analysis; assay type: cell-based
[25] = Toxicity in BALB/c mouse allografted with mouse 4T1 cells assessed as pathological change in lung at 30 to 60 mg/kg, ip qd for 15 days by H and E staining based analysis; assay type: organism-based; conditions: in vivo, 360 h, dose 30-60 mg/kg, time 15 day
[26] = Half life in Sprague-Dawley rat at 3 mg/kg, iv measured for 24 hrs by LC-MS/MS analysis; assay type: ADME, organism-based; conditions: in vivo

COc1nc(OCc2cccc(-c3ccccc3)c2C)ccc1CNCCNC(=O)CCCCCCCCNC(=O)COc1ccc(C2CCC(=O)NC2=O)cc1 (stereo unspecified)
Kd [1]: 59.2 µM | Activity [2]: Non-Toxic | Activity [3]: Active | Activity [4]: Active | Vd [5]: 23 L/kg | Activity [6]: Active | inhibition in vivo at 30 mg/kg [7]: 75% | Activity [8]: Non-Toxic | Activity [9]: Non-Toxic | Activity [10]: Non-Toxic | Activity [11]: Active | clearance [12]: 471 mL/min/kg | Emax [13]: 85% | Activity [14]: Active | Activity [15]: Non-Toxic | Activity [16]: Active | Activity [17]: Non-Toxic | Activity [18]: Non-Toxic | Activity [19]: Non-Toxic | Activity [20]: Non-Toxic | Activity [21]: Non-Toxic | Activity [22]: Non-Toxic | Activity [23]: Active | Activity [24]: Active | Activity [25]: Non-Toxic | half-life [26]: 57.1 min
